Assays:
[1] = Cyclic voltammetry (redox potentials); type: physicochemical; conditions: 20 mM in CH3CN with 0.1 M [TBA][PF6], 250 mV/s, room temperature; mid-point of anodic and cathodic peak potentials
Description: Ferrocene was used as an internal standard.
CV of 1b, shown in FIG. 7, is similar to that reported previously for [V(mnt)3]^2− with various cations. Three reversible waves corresponding to the 4^−/3^−, 3^−/2^− and 2^−/1^− redox couples are observed at −1.41 V, −0.227 V and 0.856 V vs. SHE, respectively. Redox potential values reported herein correspond to the mid-point between the anodic and cathodic peak potentials of a cyclic voltammogram. […] Thus, a battery cell constructed using 1 as both anolyte and catholyte has a theoretical cell potential of […] and a theoretical energy density of 13 W·h·L^−1. However, bulk reduction of [V(mnt)3]^2− to [V(mnt)3]^3− in the anodic half-cell before charging would result in a theoretical cell potential and energy density of 2.3V and 28 W·h·L^−1, respectively. These values compare favorably to previously reported non-aqueous RFB electrolytes. A RFB based on [V(mnt)3]^2− solutions would also benefit from having the same chemical species in both half-cells, a strategy that has been employed previously to prevent irreversible self-discharge from crossover of active redox species through the membrane. This feature then also enables the use of inexpensive, microporous separators that are not ion-selective.

[2] = Solubility in acetonitrile by UV-vis spectroscopy; type: physicochemical; conditions: absorbance at 568 nm, Beers law
Experimental: Solutions were prepared by mixing roughly equal volumes of metal complex and solvent. The resulting black solution was concentrated with a stream of N2 until a slight crust began to form, which was re-dissolved with warming and agitation. The sample was then centrifuged at 8000 RPM for two hours and allowed to stand overnight. Concentrations were determined using absorbance at 568 nm, ε568=4540 M^−1cm^−1.

[3] = Static cell (H-cell) galvanostatic charge-discharge cycling; conditions: 20 mM in acetonitrile, 0.1 M [TBA][PF6]; through cycle 16
Experimental: Cyclic voltammetry (CV) was carried out using a Bio-Logic SP-200 potentiostat, a glassy carbon working electrode, a Pt wire counter electrode and a silver-wire pseudo reference electrode. Ferrocene was used as an internal standard. For static cell battery testing, an H-cell was used containing 20 mM anolyte/catholyte and 100 mM [NBu4][PF6] supporting electrolyte. Charge and discharge currents were 1 mA and 0.1 mA, respectively. Graphite electrodes (POCO) having a 2 cm^2 active area and a Tonen V25EKD separator were used.
A two-compartment cell with non-flowing solutions (i.e., “static cell”) was assembled to assess the charge-discharge characteristics of [V(mnt)3]^2− in a non-aqueous environment. Both compartments contained a 20 mM solution of 1b in acetonitrile with 0.1 M tetrabutylammonium hexafluorophosphate as supporting electrolyte. Two graphite electrodes (POCO) with 2 cm^2 active areas and a V25EKD separator (Tonen) were used. Because the discharged cathode and anode complexes are both in the 2^− oxidation state, it is presumed that the cathode complex converts to the 1^− state and the anode complex converts to the 3^− state during charge.

[4] = Stability under air (solid and acetonitrile solution), CV and UV-vis; type: physicochemical
Description: Long-term stability is a key consideration in the development of RFB systems and recent research has included extensive investigations of state-of-the-art aqueous RFB systems. Factors affecting stability and the decay of capacity including membrane chemistry, thermal effects, gas evolution and electrode corrosion have been identified and this remains an active research area. In comparison, the long-term stability of non-aqueous RFBs remains to be investigated. […] To investigate its stability in solution, a 1 mM acetonitrile solution was analyzed, stored for a period of one week under air atmosphere, and subsequently analyzed. […] Long-term studies to investigate the stability of the membrane, electrode and electrolytes have been initiated.

| SMILES | redox potential 2−/1− couple [1] [V vs. SHE] | redox potential 3−/2− couple [1] [V vs. SHE] | redox potential 4−/3− couple [1] [V vs. SHE] | maximum solubility [2] [mM] | electrochemical yield (faradaic efficiency) of charge cycles, stabilized [3] | stability in solution (CV and UV-vis spectroscopy) ([4]; 1 mM acetonitrile solution, one week under air atmosphere) | stability as prepared to ambient oxygen and moisture ([4]; as prepared, stored under air) |
| --- | --- | --- | --- | --- | --- | --- | --- |
| CC[N+](CC)(CC)CC.CC[N+](CC)(CC)CC.N#CC([S-])=C([S-])C#N.N#CC([S-])=C([S-])C#N.N#CC([S-])=C([S-])C#N.[V+4] [1b] | 0.856 | −0.227 | −1.41 | ~900 | 20-25% | – | – |
| C[N+](C)(C)C.C[N+](C)(C)C.N#CC([S-])=C([S-])C#N.N#CC([S-])=C([S-])C#N.N#CC([S-])=C([S-])C#N.[V+4] [1a] | – | – | – | – | – | unchanged | no decomposition was observed |
